Measurements from patent US8003595B2, “Amino acid sequences facilitating penetration of a substance of interest into cells and/or cell nuclei” (Cellectis, priority 2000, dated 2011).
≈ marks a conversion by molar mass, not a printed value. Where two headings read alike, the source gives them in different places. Marks after values point to notes of the source that are not given here. Where no end group is shown, it is not given here.

Legend:
[1] = tested on: Salmonella typhimurim (clinical isolate); assay: Antibacterial activity of cationic peptides (MBC); type: cell-based; conditions: S. typhimurium
Experimental: (§1) The gram-positive bacterial strains are: Enterococcus faecalis (ATCC 29212), and Staphylococcus aureus (ATCC 25923) and the gram-negative strains are: Escherichia coli (ATCC 25922), Pseudomonas aeruginosa (ATCC 27853) and Salmonella typhimurim (clinical isolate), Salmonella typhiTy2 (WHO). The bacteria are cultured with shaking all night at 37° C., then recultured at a dilution of 1:50 in some fresh Luria-Bertani (LB) medium for 2 hours. The bacterial concentration is adjusted to […], and 50 μl is distributed in 96-well plates with an equal volume of peptides diluted half and half (256-0.5 μg/ml) in LB medium. […] To determine the minimum bactericide concentration, 10 μl from each well is spread on gelose plates in LB medium.
(§2) The results are expressed as the peptide concentration in MBC (μM).

[2] = tested on: Salmonella typhiTy2 (WHO); assay: microbe, parasite or virus in culture; type: cell-based, S. typhi-Ty2
Experimental: as §1, §2

[3] = tested on: Pseudomonas aeruginosa (ATCC 27853); assay: microbe, parasite or virus in culture; type: cell-based
Experimental: as §1, §2

[4] = tested on: Staphylococcus aureus (ATCC 25923); assay: microbe, parasite or virus in culture; type: cell-based
Experimental: as §1, §2

[5] = tested on: Escherichia coli (ATCC 25922); assay: microbe, parasite or virus in culture; type: cell-based
Experimental: as §1, §2

[6] = tested on: Enterococcus faecalis (ATCC 29212); assay: microbe, parasite or virus in culture; type: cell-based
Experimental: as §1, §2

HT29 cells = assay: cells; type: cell-based; conditions: Homo sapiens, HT-29, Table 26, read-out: % inhibition of the growth of HT29 cells
Source text: N-phthalimidoglutarimide (thalidomide) is a molecule that has a great variety of properties, such as a teratogenic effect, reduction of the production of TNF-α by the monocytes and suppression of angiogenesis. It has been shown that the teratogenic activity depends on the glutarimide residue, while the antiangiogenic effect depends on the phthaloyl group. We therefore prepared peptide SEQ ID NO: 46 derived from peptide SEQ ID NO: 26 (HBP3)2 and added glycyl phthaloyl in N-terminal. The technique used to test the activity of phthaloyl-HBP3 is the same as the one previously described for aspirin. The results of the inhibition of the growth (%) of HT29 cells shown in Table 27 are calculated as a percentage of the mean optical density in the wells of cells containing dilutions of the samples being tested and the mean optical density of the wells of cells that received only medium.

CHO cells = assay: In vitro transfection with luciferase plasmid using peptides; type: cell-based, Chinese hamster; conditions: for luciferase expression RLU: 3 μg of plasmid PCMV-LUC and 3.3 nmoles of peptide
Experimental: The plasmid used is PCMV-LUC (6.4 kb) carrying the luciferase gene under the control of the promoter of the human cytomegalovirus.
The plasmid-peptide complexes are prepared by adding 3 μg of plasmid to 50 μl of NaCl, 0.15 M and 3.3 nmoles of SEQ ID NO: 22 and 23 for 15 minutes. The complexes are prepared in triplicate.
CHO cells are cultivated in the complete medium MEM Alpha containing 6% fetal calf serum and sown with 5×10^4 cells per well on a 24-well plate the evening before the experiment. The wells are then emptied of the medium, and the plasmid-peptide complex is added to them (3 μg of plasmid and 3.3 nmoles of peptide in 0.5 ml of complete medium for 5 hours at 37° C.). The medium is then replaced with the complete medium, and the culture is continued for 18-20 hours. The cells are then washed three times with PBS, then lysed with 100 μl of lysis buffer (Promega) containing 1% Triton X-100 and 2 mM DTT.
Then a 15 μl sample of the lysate is taken to measure the luciferase with the Promega luciferin kit and 15 other μl to calculate the quantity of proteins in the lysate using the Bradford Test. The relative luciferase units (RLU) are reported in mg of proteins.

3T3 cells = assay: as above; type: cell-based, mouse; conditions: for RLU value relative to peptide SEQ ID NO: 41: 3T3 cells; for luciferase expression RLU: peptide and plasmid pCMVLUC complexed at 1.6 nmoles/μg
Experimental: Technique: The plasmid pCMVLUC (carrying the gene for luciferase) provided by Qiagen is used according to their instructions. 3T3 cells are sown the night before in 24-well plates (8×10^4 cells/well) in the complete culture medium.
The peptides and the plasmid are complexed in a ratio of 1.6 nmoles/μg in 50 μl of NaCl 0.15M for 20 minutes at laboratory temperature. The cells are then washed, and the peptide-plasmid complex added to the cells in 0.5 ml of complete medium. After 5 hours of incubation at 37° C., the reaction medium is eliminated, and 1 ml of complete medium is added to the cells. After 24 hours of culture, the cells are then washed 3 times with PBS and lysed with 100 μl of lysis buffer (Promega) containing 1% Triton X-100 and 2 mM DTT for 15 minutes. The luciferase test is done on the cell lysate after centrifugation. The quantity of protein in the lysate is measured using the Bradford Test (Bio-Rad) and calculated according to a curve established with bovine gamma globulins. The luciferase activity is estimated on 15 μl of lysate plus 100 μl of reagent of luciferase containing luciferin (Promega). The relative luciferase units (RLU) are measured in a luminometer (Berthold Systems) and reported in mg of protein.

cells = assay: Penetration of biotinylated peptides inside cells (microscopy, S-PO coloration); type: cell-based; conditions: biotinylated peptides 50 to 6 μg/ml, 1-18 hours, revealed with S-PO
Experimental: The cells are cultivated in the presence of the different peptides carrying, on the N-terminal side, biotin in decreasing concentrations (50 to 6 μg/ml) in the culture medium for variable times (1-18 hours).
At the end of the culture, the cells are washed three times with PBS (0.15 M NaCl buffered with 0.01 M potassium phosphate buffer pH 7.4) then fixed 15 minutes in ethanol at −20° C. The penetration of the peptide is evaluated after incubation for 30 minutes with streptavidin conjugated with peroxidase (abbreviated S-PO for streptavidin-peroxidase). Then, the S-PO is eliminated, and the cells are washed. […] With the other peptides, positive colorations, but of variable intensity, were noted.

[7] = tested on: gram-positive and gram-negative bacterial strains; assay: Antibacterial activity of cationic peptides, summary over strains; type: cell-based; conditions: summary of Table 29
Experimental: as §1
However, when peptide HPB13 (SEQ ID NO: 38) is coupled with peptide SEQ ID NO: 24, it enhances its activity by a factor of 50 to 100 (peptide SEQ ID NO: 45). […] None these peptides are active on gram-positive bacteria.

H1299 cells = assay: Internalization of biotinylated peptide/S-PO complexes; type: cell-based, human; conditions: peptide: S-PO complexes of 4:1, peptide concentration of 1 μg
Experimental: A biotinylated/S-PO peptide or biotinylated/A-PO complex (A-PO for avidin-peroxidase) is prepared extemporaneously in two ways:
1) either in a peptide: S-PO or A-PO molar ratio of 4:1 (for example, 1.4 μg of peptide with a molecular weight of 3500 to 10 μg of S-PO; the weight of S-PO used varies depending on the peptides since their molecular weights are different).
2) or in a peptide: S-PO or A-PO molar ratio of 25:1 (for example 1.7 μg of peptide with a molecular weight of 3500 to 1 μg of S-PO).
The complexes are prepared by incubating the biotinylated peptide with S-PO or A-PO in PBS in a volume of 5 to 10 μl for 15 minutes at laboratory temperature. They are then diluted in 1 ml of complete culture medium, filtered on a 0.2 micron membrane and incubated with the cells for 4 hours. The cells are then washed three times with PBS.
To study the penetration of the complexes under a microscope, the cells are fixed as before for 15 minutes in ethanol at −20° C., they are washed with PBS, and the activity of the internalized peroxidase is shown by diaminobenzidine in the presence of H2O2. To measure the quantity of peptide/S-PO or A-PO complexes internalized, the cells are trypsinized, transferred into microtubes and counted. They are washed twice by centrifugation, then the residue is suspended in 200 μl of lysis buffer (Tris buffer, 0.1 M, pH8, 0.5% Nonidet). After 15 minutes, the peroxidase contained in the lysis buffer is dosed onto 96-well plates with ortho-dianisidine and H2O2 by comparison with a standard curve for S-PO. The reading is taken at 450 nm. The quantity contained in the different samples is expressed in picograms (pg) per 10^4 cells.
Table 7 below reports the results of evaluating the influence of SEQ ID NO: 1 on the penetration of peptides coupled to SEQ ID NO: 1 into H1299 cells, where
Concentration a: 25 peptides to one molecule of S-PO (1 μg),
Concentration b: 4 peptides to one molecule of S-PO (10 μg).

## CC1(C)S[C@@H]2[C@H](NC(=O)[C@H](N)c3ccccc3)C(=O)N2[C@H]1C(=O)O [Ampicillin, reference compound]
[1]
  MBC: 11 µM (≈ 3.84 µg/mL)
[2]; Salmonella, TYPHI
  MBC: 5.5 µM (≈ 1.92 µg/mL)
[3]; Pseudomonas aeruginosa, ATCC27853, P. aeruginosa
  MBC: > 696 µM
[4]; Staphylococcus aureus, ATCC25923, S. aureus
  MBC: < 0.68 µM
[5]; Escherichia coli, ATCC25922, E. coli, read-out: MBC
  MBC: 22 µM (≈ 7.69 µg/mL)
[6]; Enterococcus faecalis, ATCC29212, E. faecalis
  MBC: 2.75 µM (≈ 0.961 µg/mL)

## CC(=O)Oc1ccccc1C(=O)O [Natural aspirin, aspirin, reference compound]
HT29 cells; 100 μg/ml
  inhibition at 100 µg/mL: 0%
HT29 cells; 200 μg/ml
  inhibition at 200 µg/mL: 3%
HT29 cells; 500 μg/ml
  inhibition at 500 µg/mL: 6%
HT29 cells; 1000 μg/ml
  inhibition at 1000 µg/mL: 48%

## CC(C)C[C@H](NC(=O)[C@H](CCCCN)NC(=O)[C@H](C)NC(=O)[C@H](CC(C)C)NC(=O)[C@H](CCCCN)NC(=O)[C@H](CCCCN)NC(=O)[C@H](C)NC(=O)[C@H](CC(C)C)NC(=O)[C@H](CCCCN)NC(=O)[C@H](C)NC(=O)[C@H](CC(C)C)NC(=O)[C@@H](N)CCCCN)C(=O)N[C@@H](C)C(=O)N[C@@H](CCCCN)C(=O)O [SEQ ID NO: 24, reference compound]
[1]
  MBC: 110 µM (≈ 168 µg/mL)
[2]; S. typhi-Ty2
  MBC: 27.5 µM (≈ 41.9 µg/mL)
[3]; P. aeruginosa
  MBC: 27.5 µM (≈ 41.9 µg/mL)
[4]; S. aureus
  MBC: >110 µM
[5]; E. coli, read-out: MBC
  MBC: 55 µM (≈ 83.8 µg/mL)
[6]; E. faecalis
  MBC: >110 µM

## KLAKLAKKLAKLAKGKRKKKGKLGKKRDP [SEQ ID NO: 44]
[1]
  MBC: 1.27 µM
[2]; Ty2 (WHO)
  MBC: 0.64 µM
[3]; P. aeruginosa
  MBC: >110 µM
[4]; S. aureus
  MBC: >110 µM
[5]; E. coli, read-out: MBC
  MBC: 1.7 µM
[6]; E. faecalis
  MBC: >110 µM

## KLAKLAKKLAKLAKKHLKKHLKKHLK [SEQ ID NO: 45]
[1]
  MBC: 1 µM
[2]; Ty2 (WHO)
  MBC: 0.66 µM
[3]; P. aeruginosa
  MBC: 0.5 µM
[4]; S. aureus
  MBC: >680 µM
[5]; E. coli, read-out: MBC
  MBC: 1 µM
[6]; E. faecalis
  MBC: >680 µM

## SEQ ID NO: 22: Peptide containing 12 lysines (K) and SEQ ID NO: 6 (KKKKKKKKKKKKTYYSDTVKGRFTRQKYNKRA; Mus musculis x Rattus norvegicus)
CHO cells
  luciferase expression RLU: 1.9 10^6/mg of proteins

## SEQ ID NO: 23: Peptide containing 12 lysines (K) and SEQ ID NO: 5 (KKKKKKKKKKKKVKRGLKLRQKYNKRAMDY; Mus musculis x Rattus norvegicus)
CHO cells
  luciferase expression RLU: 11.5 10^6/mg of proteins
CHO cells; CHO cells
  increase of luciferase expression compared with SEQ ID NO: 22: 6 times

## SEQ ID NO: 40: SEQ ID NO: 10 (1047) plus 13 N-terminal lysines (KKKKKKKKKKKKKVKRGLKLRHVRPRVTRMDV; listed as Homo sapiens)
3T3 cells
  RLU value relative to peptide SEQ ID NO: 41: 2.6 times
  luciferase expression RLU: 1.9 × 10^6/mg of protein

## SEQ ID NO: 41: SEQ ID NO: 28 (HBP3)2) plus 13 N-terminal lysines (KKKKKKKKKKKKKSERKKRRRESRKKRRRES; listed as Homo sapiens)
3T3 cells
  luciferase expression RLU: 0.9 × 10^6/mg of protein

## SEQ ID NO: 42: SEQ ID NO: 39 (HBP10) plus 13 N-terminal lysines (KKKKKKKKKKKKKSRRARRSPRHLGSG; listed as Homo sapiens)
3T3 cells
  RLU value relative to peptide SEQ ID NO: 41: 5.5 times
  luciferase expression RLU: 5 × 10^6/mg of protein

## VKRGLKLVKRGLKL [SEQ ID NO: 2]
cells
  intracellular cytochemical coloration: Faint coloration
[1]
  MBC: >160 µM
[7]
  bactericide / anti-microbial activity: not active
H1299 cells
  S-PO internalized: 84 pg/10^4 cells
[3]; ATCC 27853
  MBC: >160 µM
[4]; ATCC 25923
  MBC: >160 µM
[5]; ATCC 25922
  MBC: >160* μM
[6]; ATCC 29212
  MBC: >160 µM
